# Reference: ChEMBL document CHEMBL4808164, “Giffonins, Antioxidant Diarylheptanoids from Corylus avellana, and Their Ability to Prevent Oxidative Changes in Human Plasma Proteins” (J Nat Prod, 2021)
# Calls of active or inactive are those of the source. The rule behind the calls is not given here.
# Legend:
# Plasma [1] = assay: Antioxidant activity in human plasma assessed as inhibition of H2O2/[…]-induced lipid peroxidation at 10 uM incubated for 30 mins by TBARS assay; type: functional, cell-free
# Plasma [2] = assay: Antioxidant activity in human plasma assessed as inhibition of H2O2-induced lipid peroxidation at 10 uM incubated for 30 mins by TBARS assay; type: functional, cell-free
# Plasma [3] = assay: Antioxidant activity in human plasma protein assessed as reduction of H2O2-induced oxidation of thiol group at 10 uM incubated for 30 mins by Ellman reagent based spectrophotometry; type: functional, cell-free
# Plasma [4] = assay: Effect on autoxidation of thiol group in human plasma protein at 0.1 to 100 uM by Ellman reagent based spectrophotometry; type: ADME, cell-free; conditions: dose 0.1-100 µM
# Plasma [5] = assay: Antioxidant activity in human plasma protein assessed as reduction of H2O2/Fe2+-induced plasma protein carbonylation at 10 uM incubated for 30 mins; type: functional; design: scale not given: the % may be the effect or the level left
# Plasma [6] = assay: Antioxidant activity in human plasma protein assessed as reduction of H2O2/Fe2+-induced oxidation of thiol group at 10 uM incubated for 30 mins by Ellman reagent based spectrophotometry; type: functional, cell-free
# Plasma [7] = assay: Effect on auto-carbonylation of human plasma protein at 0.1 to 100 uM; type: ADME, cell-free; conditions: dose 0.1-100 µM
# Plasma [8] = assay: Antioxidant activity in human plasma protein assessed as reduction of H2O2-induced plasma protein carbonylation at 10 uM incubated for 30 mins; type: functional, cell-free
SMILES,inhibition (Plasma [1]) [%],inhibition (Plasma [2]) [%],Activity (Plasma [3]),Activity (Plasma [4]),Activity (Plasma [5]; 0.5 h) [%],Activity (Plasma [6]),Activity (Plasma [7]),Activity (Plasma [8]),Activity (Plasma [5])
O=C1[C@@H](O)Cc2ccc(O)c(c2)-c2cc(ccc2O)C[C@@H](O)[C@H](O)[C@H]1O,23.9,3.8,–,–,–,–,–,–,–
O=C1C[C@@H](O)Cc2ccc(O)c(c2)-c2cc(ccc2O)C[C@H](O)[C@H]1O,4.2,6.2,–,–,–,–,–,–,–
O=C1CCc2ccc(O)c(c2)-c2cc(ccc2O)C[C@H](O[C@@H]2O[C@H](CO)[C@@H](O)[C@H](O)[C@H]2O)C[C@@H]1O,4.8,3.9,–,–,–,–,–,–,–
COc1c2cc(c(OC)c1O)Oc1ccc(cc1)[C@@H](O)C[C@H](O)/C=C/C=C/2,25.5,24.2,Active,Non-Toxic,65,Active,Non-Toxic,Active,–
COc1c2cc(c(OC)c1O)Oc1ccc(cc1)CCCC[C@@H](O)/C=C\2,–,–,Active,Non-Toxic,–,Active,Non-Toxic,Active,Active
COc1c2cc(c(OC)c1O)Oc1ccc(cc1)[C@@H](O)C[C@H](O)CC/C=C/2,4,2.7,–,–,–,–,–,–,–
COc1c(O)cc2cc1Oc1ccc(cc1)CC[C@@H](O)/C=C/C=C\2,–,–,Active,Non-Toxic,–,Active,Non-Toxic,Active,Active
O=C1/C=C/CCc2ccc(O)c(c2)-c2cc(ccc2O)CC1,–,–,Active,Non-Toxic,–,Active,Non-Toxic,–,–
COc1cc(/C=C/C(=O)CC(=O)/C=C/c2ccc(O)c(OC)c2)ccc1O,23.2,20.6,–,–,–,–,–,–,–
O=C1CCc2ccc(O)c(c2)-c2cc(ccc2O)C[C@@H](O)[C@H](O)C1,11.2,3.9,–,–,–,–,–,–,–
Oc1ccc2cc1-c1cc(ccc1O)C[C@H](O)[C@@H](O)[C@@H](O)C[C@@H](O)C2,14.4,33.3,–,–,–,–,–,–,–
Oc1ccc2cc1-c1cc(ccc1O)C[C@H](O)[C@H](O)C(O)[C@@H](O)[C@H](O)C2 (some centres undefined),10.4,33.6,–,–,–,–,–,–,–
COc1c2cc(c(OC)c1O)Oc1ccc(cc1)CCC(=O)CC/C=C\2,–,–,Active,Non-Toxic,–,Active,Non-Toxic,–,–
O=C1CCc2ccc(O)c(c2)-c2cc(ccc2O)C[C@H](O)C[C@H]1O,34.1,44.4,Active,Non-Toxic,–,Active,Non-Toxic,Active,Active
O=C1CCc2ccc(O)c(c2)-c2cc(ccc2O)C[C@H](O)[C@@H](O)[C@@H]1O,–,–,Active,Non-Toxic,–,Active,Non-Toxic,Active,Active
COc1c2cc(c(OC)c1O)Oc1ccc(cc1)CC[C@@H](O)/C=C/C=C\2,–,–,Active,Non-Toxic,65,Active,Non-Toxic,Active,–
